pIC50: −log10 of the molar value. Values joined by “and” are separate entries in the source; they are usually repeats but may differ in a detail not shown here. Equal values may be shown once.
System: 454973-116-R2-J3-PDC spheroids, percent test/control viability
Experiment: Anticancer human tumor 454973-116-R2-J3-PDC patient-derived pancreatic carcinoma cell line growth inhibition [CLK]
Conditions: spheroids with HUVEC and MSC; for viability, T/C: stronger effect = lower value; active = viability on the fitted dose curve at most 10% of control; inactive = the rest
In short: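 Multi-cell-type spheroids combined patient-derived tumor cells with HUVEC endothelial cells and human mesenchymal stem cells. Paired agents were dosed in half-log steps down from about clinical Cmax, or from 10 microM where Cmax was unknown.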

[1] = curve of first compound, second compound 0.0316 µM
[2] = curve of first compound, second compound 0.1 µM
[3] = curve of first compound, second compound 0.316 µM
[4] = curve of first compound, second compound 1 µM
[5] = curve of first compound, second compound 3.16 µM
[6] = curve of first compound, second compound 10 µM
[7] = second compound 0.0316 µM, first compound 0.00316 µM
[8] = second compound 0.0316 µM, first compound 0.01 µM
[9] = second compound 0.0316 µM, first compound 0.0316 µM
[10] = second compound 0.0316 µM, first compound 0.1 µM
[11] = second compound 0.0316 µM, first compound 0.316 µM
[12] = second compound 0.0316 µM, first compound 1 µM
[13] = second compound 0.1 µM, first compound 0.00316 µM
[14] = second compound 0.1 µM, first compound 0.01 µM
[15] = second compound 0.1 µM, first compound 0.0316 µM
[16] = second compound 0.1 µM, first compound 0.1 µM
[17] = second compound 0.1 µM, first compound 0.316 µM
[18] = second compound 0.1 µM, first compound 1 µM
[19] = second compound 0.316 µM, first compound 0.00316 µM
[20] = second compound 0.316 µM, first compound 0.01 µM
[21] = second compound 0.316 µM, first compound 0.0316 µM
[22] = second compound 0.316 µM, first compound 0.1 µM
[23] = second compound 0.316 µM, first compound 0.316 µM
[24] = second compound 0.316 µM, first compound 1 µM
[25] = second compound 1 µM, first compound 0.00316 µM
[26] = second compound 1 µM, first compound 0.01 µM
[27] = second compound 1 µM, first compound 0.0316 µM
[28] = second compound 1 µM, first compound 0.1 µM
[29] = second compound 1 µM, first compound 0.316 µM
[30] = second compound 1 µM, first compound 1 µM
[31] = second compound 3.16 µM, first compound 0.00316 µM
[32] = second compound 3.16 µM, first compound 0.01 µM
[33] = second compound 3.16 µM, first compound 0.0316 µM
[34] = second compound 3.16 µM, first compound 0.1 µM
[35] = second compound 3.16 µM, first compound 0.316 µM
[36] = second compound 3.16 µM, first compound 1 µM
[37] = second compound 10 µM, first compound 0.00316 µM
[38] = second compound 10 µM, first compound 0.01 µM
[39] = second compound 10 µM, first compound 0.0316 µM
[40] = second compound 10 µM, first compound 0.1 µM
[41] = second compound 10 µM, first compound 0.316 µM
[42] = second compound 10 µM, first compound 1 µM
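Also: spheroids exposed to compounds for 7 days before readout.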

CCc1c2c(nc3ccc(O)cc13)-c1cc3c(c(=O)n1C2)COC(=O)[C@]3(O)CC + CNC(=O)c1ccc(Nc2nc(OC3CCCC3)c3c(-c4ccc5nc(C)oc5c4)c[nH]c3n2)c(OC)c1
inactive: viability, T/C [7] 27.4% | viability, T/C [8] 16.7% | viability, T/C [9] 12.8% | viability, T/C [13] 21.7% | viability, T/C [14] 18.1% | viability, T/C [15] 13.6% | viability, T/C [19] 20.4% | viability, T/C [20] 17.1% | viability, T/C [21] 10.5% | viability, T/C [25] 24% | viability, T/C [26] 17.2% | viability, T/C [31] 24.5% | viability, T/C [32] 16.7% | viability, T/C [37] 22.6% | viability, T/C [38] 15.3%
> 8.50: pIC50 [1] | pIC50 [2] | pIC50 [3] | pIC50 [4] | pIC50 [5] | pIC50 [6]
active: viability, T/C [10] 5.45% | viability, T/C [11] 4.91% | viability, T/C [12] 1.19% | viability, T/C [16] 9.68% | viability, T/C [17] 3.81% | viability, T/C [18] 1.47% | viability, T/C [22] 6.75% | viability, T/C [23] 2.62% | viability, T/C [24] 1.9% | viability, T/C [27] 6.96% | viability, T/C [28] 2.96% | viability, T/C [29] 2.33% | viability, T/C [30] 1.14% | viability, T/C [33] 7.28% | viability, T/C [34] 4.75% | viability, T/C [35] 2.45% | viability, T/C [36] 0.84% | viability, T/C [39] 4.85% | viability, T/C [40] 5.04% | viability, T/C [41] 3.11% | viability, T/C [42] 0.6%

C=CC(=O)N1CCN(c2nc(=O)n(-c3c(C)ccnc3C(C)C)c3nc(-c4c(O)cccc4F)c(F)cc23)C(C)C1 (stereo not drawn)
inactive: viability, T/C (compound 0.0316 µM) 107% and 99.3% | viability, T/C (compound 0.1 µM) 107% and 106% | viability, T/C (compound 0.316 µM) 107% and 105% | viability, T/C (compound 1 µM) 110% and 97.4% | viability, T/C (compound 3.16 µM) 124% and 116% | viability, T/C (compound 10 µM) 124% and 118%
< 5.00: pIC50 (curve of compound)

Cn1ncnc1[C@H]1c2n[nH]c(=O)c3cc(F)cc(c23)N[C@@H]1c1ccc(F)cc1 + CNC(=O)c1ccc(Nc2nc(OC3CCCC3)c3c(-c4ccc5nc(C)oc5c4)c[nH]c3n2)c(OC)c1
< 7.00: pIC50 [1] | pIC50 [2]
inactive: viability, T/C (second compound 0.0316 µM, first compound 0.000316 µM) 110% | viability, T/C (second compound 0.0316 µM, first compound 0.001 µM) 114% | viability, T/C [7] 110% | viability, T/C [8] 119% | viability, T/C [9] 105% | viability, T/C [10] 86.2% | viability, T/C (second compound 0.1 µM, first compound 0.000316 µM) 113% | viability, T/C (second compound 0.1 µM, first compound 0.001 µM) 104% | viability, T/C [13] 104% | viability, T/C [14] 106% | viability, T/C [15] 104% | viability, T/C [16] 86.4% | viability, T/C (second compound 0.316 µM, first compound 0.000316 µM) 43.1% | viability, T/C (second compound 0.316 µM, first compound 0.001 µM) 51.2% | viability, T/C [19] 50.8% | viability, T/C [20] 52.2% | viability, T/C [21] 52.2% | viability, T/C [22] 48.1% | viability, T/C (second compound 1 µM, first compound 0.000316 µM) 33.1% | viability, T/C (second compound 1 µM, first compound 0.001 µM) 31.5% | viability, T/C [25] 27.8% | viability, T/C [26] 36.4% | viability, T/C [27] 31.1% | viability, T/C [28] 23.5% | viability, T/C (second compound 3.16 µM, first compound 0.000316 µM) 29.2% | viability, T/C (second compound 3.16 µM, first compound 0.001 µM) 26.7% | viability, T/C [31] 29% | viability, T/C [32] 25.7% | viability, T/C [33] 23.9% | viability, T/C [34] 21.4% | viability, T/C (second compound 10 µM, first compound 0.000316 µM) 25.5% | viability, T/C (second compound 10 µM, first compound 0.001 µM) 27.6% | viability, T/C [37] 25.8% | viability, T/C [38] 21.7% | viability, T/C [39] 24.5% | viability, T/C [40] 19.6%
> 9.50: pIC50 [3] | pIC50 [4] | pIC50 [5] | pIC50 [6]

CCc1c2c(nc3ccc(O)cc13)-c1cc3c(c(=O)n1C2)COC(=O)[C@]3(O)CC + CN1CCN(c2cc(C(=O)Nc3cc4cc(-c5cnn(C)c5)ccc4cn3)ccn2)CC1
inactive: viability, T/C [7] 26.9% | viability, T/C [8] 17.1% | viability, T/C [9] 12.6% | viability, T/C [13] 21.8% | viability, T/C [14] 21.1% | viability, T/C [15] 9.73%
active: viability, T/C [10] 6.38% | viability, T/C [11] 3.17% | viability, T/C [12] 0.71% | viability, T/C [16] 3.23% | viability, T/C [17] 1.75% | viability, T/C [18] 0.31% | viability, T/C [19] 2.15% | viability, T/C [20] 3.91% | viability, T/C [21] 2.2% | viability, T/C [22] 0.98% | viability, T/C [23] 0.1% | viability, T/C [24] 0.1% | viability, T/C [25] 0.08% | viability, T/C [26] 0.1% | viability, T/C [27] 0.1% | viability, T/C [28] 0.05% | viability, T/C [29] 0.07% | viability, T/C [30] 0.09% | viability, T/C [31] 0.1% | viability, T/C [32] 0.13% | viability, T/C [33] 0.14% | viability, T/C [34] 0.11% | viability, T/C [35] 0.16% | viability, T/C [36] 0.15% | viability, T/C [37] 0.07% | viability, T/C [38] 0.12% | viability, T/C [39] 0.17% | viability, T/C [40] 0.18% | viability, T/C [41] 0.21% | viability, T/C [42] 0.18%
> 8.50: pIC50 [1] | pIC50 [2] | pIC50 [3] | pIC50 [4] | pIC50 [5] | pIC50 [6]
